Test results taken from patent US20040110787A1, “Heteroaryl-ethanolamine derivatives as antiviral agents” (priority 2002, published 2004).
Like-named read-outs stand apart in the source and are kept apart here.

Experiments:
VZV polymerase = VZV polymerase (Varicella-zoster virus, UniProt P09252); assay: VZV polymerase assay (Table 1); format: biochemical
HCMV polymerase = biological target: T1, HCMV polymerase (Human cytomegalovirus, UniProt P08546); assay: HCMV polymerase scintillation proximity assay (SPA); format: biochemical
T1 construct: made in house; host or cells: recombinant baculovirus-infected SF-9 cells
T1 sequence (P08546 whole entry): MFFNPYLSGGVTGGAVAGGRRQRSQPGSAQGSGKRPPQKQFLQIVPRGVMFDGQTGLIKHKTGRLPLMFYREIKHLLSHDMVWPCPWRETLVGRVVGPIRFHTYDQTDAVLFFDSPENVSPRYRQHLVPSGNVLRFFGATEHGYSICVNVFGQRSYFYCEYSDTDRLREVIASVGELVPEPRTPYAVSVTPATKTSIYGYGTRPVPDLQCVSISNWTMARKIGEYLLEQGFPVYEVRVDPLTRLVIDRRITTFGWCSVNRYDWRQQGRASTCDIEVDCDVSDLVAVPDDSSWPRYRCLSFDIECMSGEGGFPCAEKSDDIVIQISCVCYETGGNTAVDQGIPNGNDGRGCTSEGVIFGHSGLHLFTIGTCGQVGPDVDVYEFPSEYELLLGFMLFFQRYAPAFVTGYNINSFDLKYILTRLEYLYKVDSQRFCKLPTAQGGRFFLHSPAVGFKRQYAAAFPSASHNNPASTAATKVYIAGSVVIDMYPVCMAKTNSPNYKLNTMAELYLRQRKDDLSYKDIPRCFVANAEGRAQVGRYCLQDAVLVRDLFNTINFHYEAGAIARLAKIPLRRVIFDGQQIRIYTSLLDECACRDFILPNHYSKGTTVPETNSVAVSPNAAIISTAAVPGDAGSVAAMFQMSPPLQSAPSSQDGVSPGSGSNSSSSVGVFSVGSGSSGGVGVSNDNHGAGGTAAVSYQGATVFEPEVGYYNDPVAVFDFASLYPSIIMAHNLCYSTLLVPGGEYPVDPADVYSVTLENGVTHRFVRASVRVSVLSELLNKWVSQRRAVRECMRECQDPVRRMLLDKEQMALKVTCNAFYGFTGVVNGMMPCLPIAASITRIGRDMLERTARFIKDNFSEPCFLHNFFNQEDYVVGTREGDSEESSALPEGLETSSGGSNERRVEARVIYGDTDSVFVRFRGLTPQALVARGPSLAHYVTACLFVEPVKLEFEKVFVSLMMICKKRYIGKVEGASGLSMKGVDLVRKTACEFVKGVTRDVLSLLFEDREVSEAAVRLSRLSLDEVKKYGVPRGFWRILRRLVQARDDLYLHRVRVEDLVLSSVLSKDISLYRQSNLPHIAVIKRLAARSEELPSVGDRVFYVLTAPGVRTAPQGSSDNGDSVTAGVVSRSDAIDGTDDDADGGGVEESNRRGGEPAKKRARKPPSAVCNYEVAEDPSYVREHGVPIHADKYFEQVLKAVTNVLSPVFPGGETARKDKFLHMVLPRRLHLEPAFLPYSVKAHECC
Method: The HCMV polymerase assay is performed using a scintillation proximity assay (SPA) as described in several references, such as N. D. Cook, et al., Pharmaceutical Manufacturing International, pages 49-53 (1992); K Takeuchi, Laboratory Practice, September issue (1992); U.S. Pat. No. 4,568,649 (1986); which are incorporated by reference herein. Reactions are performed in 96-well plates. The assay is conducted in 100 μl volume with 5.4 mM HEPES (pH 7.5), 11.7 mM KCl, 4.5 mM MgCl2, 0.36 mg/ml BSA, and 90 nM ^3H-dTTP. Assays are run with and without CHAPS, (3-[(3-Cholamidopropyl)-dimethylammonio]-1-propane-sulfonate) at a final concentration of 2 mM. HCMV polymerase is diluted in enzyme dilution buffer containing 50% glycerol, 250 mM NaCl, 10 mM HEPES (pH 7.5), 100 μg/ml BSA, and 0.01% sodium azide. The HCMV polymerase, which is expressed in, recombinant baculovirus-infected SF-9 cells and purified according to literature procedures, is added at 10% (or 10 μl) of the final reaction volume, i.e., 100 μl. Compounds are diluted in 50% DMSO and 10 μl are added to each well. Control wells contain an equivalent concentration of DMSO. Unless noted otherwise, reactions are initiated via the addition of 6 nM biotinylated poly(dA)-oligo(dT) template/primer to reaction mixtures containing the enzyme, substrate, and compounds of interest. Plates are incubated in a 25° C. or 37° C. H2O bath and terminated via the addition of 40 μl/reaction of 0.5 M EDTA (pH 8) per well. Reactions are terminated within the time-frame during which substrate incorporation is linear and varied depending upon the enzyme and conditions used, i.e., 30 min. for HCMV polymerase. Ten (10) 10 μL of streptavidin-SPA beads (20 mg/ml in PBS/10% glycerol) are added following termination of the reaction. Plates are incubated 10 min. at 37° C., then equilibrated to room temperature, and counted on a Packard Topcount. Linear regressions are performed and IC50's are calculated using computer software.
A modified version of the above HCMV polymerase assay is performed as described above, but with the following changes: Compounds are diluted in 100% DMSO until final dilution into assay buffer. In the previous assay, compounds are diluted in 50% DMSO. 4.5 mM Dithiothreitol (DTT) is added to the polymerase buffer.
All results are listed as Polymerase IC50 ([…]) values. In Table 1, the term “n.d.” refers to activity data not determined.

HSV polymerase = HSV polymerase (Human herpesvirus 1, UniProt P04293); assay: HSV polymerase assay (Table 1); format: biochemical
Chain of HSV polymerase (P04293 whole entry): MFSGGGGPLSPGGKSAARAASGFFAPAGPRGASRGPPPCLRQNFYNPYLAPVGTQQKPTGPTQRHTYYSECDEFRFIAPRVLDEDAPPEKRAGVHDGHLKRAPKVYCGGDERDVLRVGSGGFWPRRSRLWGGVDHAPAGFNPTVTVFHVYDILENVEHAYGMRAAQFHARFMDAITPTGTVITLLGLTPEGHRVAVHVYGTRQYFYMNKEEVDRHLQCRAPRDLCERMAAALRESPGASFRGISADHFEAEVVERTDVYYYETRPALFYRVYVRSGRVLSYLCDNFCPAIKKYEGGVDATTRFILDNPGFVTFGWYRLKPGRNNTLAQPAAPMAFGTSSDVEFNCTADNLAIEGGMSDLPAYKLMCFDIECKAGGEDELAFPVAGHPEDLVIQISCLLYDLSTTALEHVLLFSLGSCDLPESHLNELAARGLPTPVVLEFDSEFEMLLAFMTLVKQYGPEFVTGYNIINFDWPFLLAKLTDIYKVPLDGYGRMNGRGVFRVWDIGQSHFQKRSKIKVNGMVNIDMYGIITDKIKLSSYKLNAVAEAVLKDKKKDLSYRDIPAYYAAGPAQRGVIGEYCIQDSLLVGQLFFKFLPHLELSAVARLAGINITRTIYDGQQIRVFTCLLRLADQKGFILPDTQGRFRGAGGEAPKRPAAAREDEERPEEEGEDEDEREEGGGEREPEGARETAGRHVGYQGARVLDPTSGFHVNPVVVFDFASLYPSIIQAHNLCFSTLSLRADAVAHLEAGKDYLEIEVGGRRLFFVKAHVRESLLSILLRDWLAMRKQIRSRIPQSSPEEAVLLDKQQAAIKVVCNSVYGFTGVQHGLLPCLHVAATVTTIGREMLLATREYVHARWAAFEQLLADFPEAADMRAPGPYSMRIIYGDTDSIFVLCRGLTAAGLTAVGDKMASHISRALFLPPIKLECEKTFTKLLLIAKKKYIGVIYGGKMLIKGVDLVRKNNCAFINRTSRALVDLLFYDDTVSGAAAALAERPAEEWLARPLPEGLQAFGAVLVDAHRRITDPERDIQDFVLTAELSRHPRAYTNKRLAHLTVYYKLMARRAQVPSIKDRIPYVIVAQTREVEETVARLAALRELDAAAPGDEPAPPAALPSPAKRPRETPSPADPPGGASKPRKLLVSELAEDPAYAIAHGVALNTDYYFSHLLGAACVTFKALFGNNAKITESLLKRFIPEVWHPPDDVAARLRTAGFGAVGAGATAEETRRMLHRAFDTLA

[1] = HCMV polymerase, SPA, read-out: Polymerase IC50 HCMV

Chain of VZV polymerase (P09252 whole entry): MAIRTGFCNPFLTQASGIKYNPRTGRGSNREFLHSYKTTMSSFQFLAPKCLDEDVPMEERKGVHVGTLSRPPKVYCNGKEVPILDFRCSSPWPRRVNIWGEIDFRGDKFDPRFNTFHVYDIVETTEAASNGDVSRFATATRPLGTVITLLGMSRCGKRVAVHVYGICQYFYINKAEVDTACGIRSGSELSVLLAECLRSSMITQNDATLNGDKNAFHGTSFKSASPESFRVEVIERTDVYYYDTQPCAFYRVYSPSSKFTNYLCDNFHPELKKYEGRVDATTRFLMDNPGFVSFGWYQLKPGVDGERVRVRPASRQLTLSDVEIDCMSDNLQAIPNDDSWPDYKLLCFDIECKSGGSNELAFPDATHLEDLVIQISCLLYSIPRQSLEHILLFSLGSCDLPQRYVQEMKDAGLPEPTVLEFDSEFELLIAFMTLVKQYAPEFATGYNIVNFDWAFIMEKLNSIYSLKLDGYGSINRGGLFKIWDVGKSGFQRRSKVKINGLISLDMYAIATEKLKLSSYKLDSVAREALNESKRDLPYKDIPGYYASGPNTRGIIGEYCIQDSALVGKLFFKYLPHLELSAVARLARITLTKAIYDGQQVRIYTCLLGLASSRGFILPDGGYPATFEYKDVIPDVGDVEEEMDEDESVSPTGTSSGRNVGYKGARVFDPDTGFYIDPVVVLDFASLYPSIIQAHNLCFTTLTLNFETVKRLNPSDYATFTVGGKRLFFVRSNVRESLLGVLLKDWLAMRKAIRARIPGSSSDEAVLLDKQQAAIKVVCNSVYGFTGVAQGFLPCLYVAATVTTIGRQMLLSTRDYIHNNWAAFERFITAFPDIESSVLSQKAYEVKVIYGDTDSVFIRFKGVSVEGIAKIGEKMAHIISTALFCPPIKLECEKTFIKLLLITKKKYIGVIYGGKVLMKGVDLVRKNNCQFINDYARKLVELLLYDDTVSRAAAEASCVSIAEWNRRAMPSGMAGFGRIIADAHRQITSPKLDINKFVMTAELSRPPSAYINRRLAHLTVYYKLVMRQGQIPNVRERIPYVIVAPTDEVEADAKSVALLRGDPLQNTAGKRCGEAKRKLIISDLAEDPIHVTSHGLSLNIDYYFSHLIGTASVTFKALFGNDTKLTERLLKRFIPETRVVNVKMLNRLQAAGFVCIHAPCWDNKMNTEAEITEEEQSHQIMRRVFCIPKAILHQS

Molecule	IC50 (VZV polymerase)	melting point	IC50 (HCMV polymerase; [1])	IC50 (HSV polymerase)	IC50 (HCMV polymerase)
Cc1cccc(C(O)CN(C)Cc2cc3c(=O)c(C(=O)NCc4ccc(Cl)cc4)cn(C)c3s2)n1 (racemic) [Example 6, rac-N-(4-Chlorobenzyl)-2-(((2-hydroxy-2-(6-methylpyridin-2-yl)ethyl)(methyl)amino)methyl)-7-methyl-4-oxo-4,7-dihydrothieno[2,3-b]pyridine-5-carboxamide]	–	158 to 162 °C	620 nM	–	–
CCCn1cc(C(=O)NCc2ccc(Cl)cc2)c(=O)c2cc(CN(C)CC(O)c3ccccn3)sc21 (racemic) [Example 15, rac-N-(4-Chlorobenzyl)-7-propyl-2-(((2-hydroxy-2-pyridin-2-ylethyl)(methyl)amino)methyl)-4-oxo-4,7-dihydrothieno[2,3-b]pyridine-5-carboxamide]	–	–	1070 nM	–	–
CCCn1cc(C(=O)NCc2ccc(Cl)cc2)c(=O)c2cc(CN(C)CC(O)c3cnccn3)sc21 (racemic) [Example 16, rac-N-(4-Chlorobenzyl)-2-(((2-hydroxy-2-pyrazin-2-ylethyl)(methyl)amino)methyl)-4-oxo-7-propyl-4,7-dihydrothieno[2,3-b]pyridine-5-carboxamide]	210 nM	–	310 nM	1090 nM	–
CN(Cc1cc2c(=O)c(C(=O)NCc3ccc(Cl)cc3)cn(CCCO)c2s1)CC(O)c1ncccn1 (racemic) [Example 19, rac-N-(4-Chlorobenzyl)-7-(3-hydroxypropyl)-2-(((2-hydroxy-2-pyrimidin-2-ylethyl)(methyl)amino)methyl)-4-oxo-4,7-dihydrothieno[2,3-b]pyridine-5-carboxamide]	–	–	–	–	1120 nM
COCCn1cc(C(=O)NCc2ccc(Cl)cc2)c(=O)c2cc(CN(C)CC(O)c3cnccn3)sc21 (racemic) [Example 21, rac-N-(4-Chlorobenzyl)-2-(((2-hydroxy-2-pyrazin-2-ylethyl)(methyl)amino)methyl)-7-(2-methoxyethyl)-4-oxo-4,7-dihydrothieno[2,3-b]pyridine-5-carboxamide]	–	122 to 123 °C	1030 nM	–	–
CN(Cc1cc2c(=O)c(C(=O)NCc3ccc(Cl)cc3)cn(C)c2s1)CC(O)c1cccnn1 (centres unmarked) [Example 12]	230 nM	–	310 nM	840 nM	–
CN(Cc1cc2c(=O)c(C(=O)NCc3ccc(Cl)cc3)cn(CC(O)CO)c2s1)C[C@@H](O)c1ccccn1 (stereo partly drawn) [Example 17, N-(4-Chlorobenzyl)-7-(2,3-dihydroxypropyl)-2-((((2R)-2-hydroxy-2-pyridin-2-ylethyl)(methyl)amino)methyl)-4-oxo-4,7-dihydrothieno[2,3-b]pyridine-5-carboxamide]	–	–	2190 nM	–	–
CN(Cc1cc2c(=O)c(C(=O)NCc3ccc(Cl)cc3)cn(CCCO)c2s1)C[C@@H](O)c1ccccn1 [Example 18, N-(4-Chlorobenzyl)-7-(3-hydroxypropyl)-2-((((2R)-2-hydroxy-2-pyridin-2-ylethyl)(methyl)amino)methyl)-4-oxo-4,7-dihydrothieno[2,3-b]pyridine-5-carboxamide]	–	–	–	–	1300 nM
CN(Cc1cc2c(=O)c(C(=O)NCc3ccc(Cl)cc3)cn(CCO)c2s1)C[C@@H](O)c1ccccn1 [Example 20, N-(4-Chlorobenzyl)-7-(2-hydroxyethyl)-2-((((2R)-2-hydroxy-2-pyridin-2-ylethyl)(methyl)amino)methyl)-4-oxo-4,7-dihydrothieno[2,3-b]pyridine-5-carboxamide]	–	–	1160 nM	–	–
CN(Cc1cc2c(=O)c(C(=O)NCc3ccc(Cl)cc3)cn(CCOCCO)c2s1)C[C@@H](O)c1cnccn1 [Example 22]	–	–	580 nM	–	–
rac-N-(4-Chlorobenzyl)-7-ethyl-2-(((2-hydroxy-2-pyrimidin-2-ylethyl)(methylamino)methyl)-4-oxo-4,7-dihydrothieno[2,3-b]pyridine-5-carboxamide [Example 14]	–	–	1200 nM	–	–

More lines, main results first:

IC50 (VZV polymerase)	melting point	IC50 (HCMV polymerase; [1])	IC50 (HSV polymerase)	Molecule	IC50 (HCMV polymerase)
220 nM	160 to 162 °C	160 nM	580 nM	CN(Cc1cc2c(=O)c(C(=O)NCc3ccc(Cl)cc3)cn(C)c2s1)CC(O)c1cccnc1 (racemic) [Example 1, rac-N-(4-Chlorobenzyl)-2-(((2-hydroxy-2-pyridin-3-ylethyl)(methyl)amino)methyl)-7-methyl-4-oxo-4,7-dihydrothieno[2,3-b]pyridine-5-carboxamide]	–
220 nM	185 to 188 °C	200 nM	470 nM	CN(Cc1cc2c(=O)c(C(=O)NCc3ccc(Cl)cc3)cn(C)c2s1)CC(O)c1ccncc1 (racemic) [Example 3, rac-N-(4-Chlorobenzyl)-2-(((2-hydroxy-2-pyridin-4-ylethyl)(methyl)amino)methyl)-7-methyl-4-oxo-4,7-dihydrothieno[2,3-b]pyridine-5-carboxamide]	–
30 nM	145 to 147 °C	90 nM	100 nM	CN(Cc1cc2c(=O)c(C(=O)NCc3ccc(Cl)cc3)cn(C)c2s1)CC(O)c1ccccn1 (racemic) [Example 4, rac-N-(4-Chlorobenzyl)-2-(((2-hydroxy-2-pyridin-2-ylethyl)(methyl)amino)methyl)-7-methyl-4-oxo-4,7-dihydrothieno[2,3-b]pyridine-5-carboxamide]	–
40 nM	155 to 160 °C	70 nM	150 nM	CN(Cc1cc2c(=O)c(C(=O)NCc3ccc(Cl)cc3)cn(C)c2s1)CC(O)c1ccc2ccccc2n1 (racemic) [Example 7, rac-N-(4-Chlorobenzyl)-2-(((2-hydroxy-2-quinolin-2-ylethyl)(methyl)amino)methyl)-7-methyl-4-oxo-4,7-dihydrothieno[2,3-b]pyridine-5-carboxamide]	–
50 nM	181 °C	130 nM	150 nM	CN(Cc1cc2c(=O)c(C(=O)NCc3ccc(Cl)cc3)cn(C)c2s1)CC(O)c1ncccn1 (racemic) [Example 8, rac-N-(4-Chlorobenzyl)-2-(((2-hydroxy-2-pyrimidin-2-ylethyl)(methyl)amino)methyl)-7-methyl-4-oxo-4,7-dihydrothieno[2,3-b]pyridine-5-carboxamide]	–
50 nM	–	110 nM	100 nM	CN(Cc1cc2c(=O)c(C(=O)NCc3ccc(Cl)cc3)cn(C)c2s1)CC(O)c1cnccn1 (racemic) [Example 10, rac-N-(4-Chlorobenzyl)-2-(((2-hydroxy-2-pyrazin-2-ylethyl)(methyl)amino)methyl)-7-methyl-4-oxo-4,7-dihydrothieno[2,3-b]pyridine-5-carboxamide]	–
30 nM	–	50 nM	130 nM	CN(Cc1cc2c(=O)c(C(=O)NCc3ccc(Cl)cc3)cn(C)c2s1)C[C@@H](O)c1ncccn1 [Example 9]	–
20 nM	–	40 nM	80 nM	CN(Cc1cc2c(=O)c(C(=O)NCc3ccc(Cl)cc3)cn(C)c2s1)C[C@@H](O)c1cnccn1 [Example 11, N-(4-Chlorobenzyl)-2-((((2R)-2-hydroxy-2-pyrazin-2-ylethyl)(methyl)amino)methyl)-7-methyl-4-oxo-4,7-dihydrothieno[2,3-b]pyridine-5-carboxamide]	–
110 nM	–	280 nM	490 nM	CN(Cc1cc2c(=O)c(C(=O)NCc3ccc(F)cc3)cn(C)c2s1)C[C@@H](O)c1ccccn1 [Example 23, N-(4-Fluorobenzyl)-2-((((2R)-2-hydroxy-2-pyridin-2-ylethyl)(methyl)amino)methyl)-7-methyl-4-oxo-4,7-dihydrothieno[2,3-b]pyridine-5-carboxamide]	–
–	167 to 169 °C	230 nM	–	CN(Cc1cc2c(=O)c(C(=O)NCc3ccc(C#N)cc3)cn(C)c2s1)C[C@@H](O)c1ccccn1 [Example 24, N(4-Cyanobenzyl)-2-((((2R)-2-hydroxy-2-pyridin-2-ylethyl)(methyl)amino)methyl)-7-methyl-4-oxo-4,7-dihydrothieno[2,3-b]pyridine-5-carboxamide]	–
–	151 to 153 °C	150 nM	–	CN(Cc1cc2c(=O)c(C(=O)NCc3ccc(Br)cc3)cn(C)c2s1)C[C@@H](O)c1ccccn1 [Example 25, N(4-Bromobenzyl)-2-((((2R)-2-hydroxy-2-pyridin-2-ylethyl)(methyl)amino)methyl)-7-methyl-4-oxo-4,7-dihydrothieno[2,3-b]pyridine-5-carboxamide]	–
